Laboratory results from patent publication US9096853B2, “Modified siRNA molecules incorporating 5-fluoro-2′-deoxyuridine residues to enhance cytotoxicity” (U.S. Department of Veterans Affairs, priority 2012, dated 2015).
[5FU] = 5-fluorouracil base, d[5FU] 5-fluoro-2'-deoxyuridine (FdU); d = 2'-deoxy (DNA); r = 2'-OH (RNA)

Assays:
[1] = system: thymidylate synthase (TS) protein; test: Immunoblot analysis of TS protein (free and ITC-bound), Odyssey quantitation; assay type: cell-based, human; details: RKO cells, ssiRNA 10 nM, 0 hr after 6 hr transfection
[2] = system: human colon cancer RKO cell line; test: Cell proliferation assay (WST-1) in RKO cells; assay type: cell-based; details: for IC50: 6 hr exposure then 96 hr growth, mean ± S.D., at least 3 experiments
Description: RKO cells were plated in 96-well plates at a density of 800 cells/well. On the following day, cells were incubated with ssiRNA/LF2000 complexes for 6 hr, after which time, the growth medium was replaced, and cells were grown for an additional 96 hr. Similarly, RKO cells were treated with FdU (#F0503, Sigma) for 6 hr followed by medium replacement and then allowed to grow for an additional 96 hr. Cell proliferation/viability was quantified by the WST-1 assay (Roche; Indianapolis, Ind.).

[3] = system: p53, Fas, cleaved PARP, γH2AX, p-ATM; test: Immunoblot of DNA damage and apoptosis signaling proteins, time course; assay type: cell-based, human; details: RKO cells, ssiRNA 10 nM, 0-72 hr
Description: FIG. 5 illustrates time-dependent effects of FdU-containing ssiRNAs on protein expression. RKO cells were transfected with various TS6 ssiRNAs (10 nM). After 6 hr, the medium was replaced, and cells were harvested for immunoblot blot analysis at the following times: before39 transfection (pre) and 0, 24, 48, and 72 hr after transfection. Images shown are representative blots from at least 4 different experiments; and
(§1) Protein concentrations of cell lysates were determined using the DC Protein Assay (Bio-Rad; Hercules, Calif.). Equal amounts of protein (30 μg) from each cell lysate were resolved on SDS-PAGE using the method of Laemmli (Reference 19) and transferred onto 0.45 μm nitrocellulose membranes (Bio-Rad). Membranes were blocked and incubated overnight with primary antibodies at 4° C. The following antibodies were used in the experiments: anti-TS (Clone 4H4B1; Invitrogen), anti-TS (#5449; Cell Signaling; San Francisco, Calif.), anti-p21 Waf1/Cip1 (#2947; Cell Signaling), anti-p53 (#sc-126; Santa Cruz Biotechnology; Santa Cruz, Calif.), anti-PARP (#9542; Cell Signaling), anti-Fas (#4233; Cell Signaling), anti-phospho-histone H2A.X (Ser139) (#2577; Cell Signaling), anti-histone H2A.X (#7631; Cell Signaling), anti-phospho-ATM (pS1981; EPITOMICS Inc.; Burlingame, Calif.), anti-ATM (#A1106; Sigma), and anti-α-tubulin (EMD Biosciences; San Diego, Calif.). After multiple TBST washes (1×TBS, 0.1% Tween-20), membranes were incubated with corresponding horseradish peroxidase-conjugated secondary antibodies (Bio-Rad) for 1 hr at room temperature. Proteins were detected by the enhanced chemiluminescence method (SuperSignal West Pico substrate; Pierce; Rockford, Ill.). Quantitation of signal intensities was performed by densitometry on a Xerox scanner using NIH IMAGEJ software.

[4] = system: thymidylate synthase (TS) protein; test: Immunoblot analysis of TS protein (free and ITC-bound), Odyssey quantitation; assay type: cell-based, human; details: RKO cells, ssiRNA 1 nM, 48 hr; for Free TS (%) / ITC-Bound TS (%): normalized to free TS protein in mock-transfected cells (LF2000) set to 100%, mean ± S.D., 6 experiments
Description: (§2) FIGS. 1A-B illustrate the effect of FdU incorporation in ssiRNA on TS protein expression. RKO cells were transfected with TS6 ssiRNAs (1 nM) containing various 3′-overhangs. After 6 hr, the medium was replaced. After an additional 48 hr, cells were harvested and processed for immunoblot and qPCR analysis as described in the Materials and Methods section. (A) Representative blot from 4 experiments. (B) All qPCR values represent the mean±S.D. from at least 3 separate experiments performed in triplicate. The normalized amount of TS mRNA from mock-transfected cells (LF2000) was set to 1.0 and all other values compared against that value. ITC, inhibitory ternary complex;
Cells were plated at a density of 1.5×10^5 cells/well. On the following day, ssiRNAs were complexed with Lipofectamine 2000 (LF2000, Invitrogen) in serum-free RPMI-1640 medium and added to the plated cells. After 48 hr, cells were rinsed with PBS and scraped in cell lysis buffer (10 mM Tris pH7.4, 150 mM NaCl, 1 mM EDTA, 1% IGEPAL, 0.5% sodium deoxycholate, and 0.1% SDS) containing freshly added Protease Inhibitor Cocktail (Sigma; St. Louis, Mo.), 1 mM phenylmethylsulfonyl fluoride, and phosphatase inhibitors (Sigma). Lysates were sonicated and then centrifuged at 14,000 rpm for 30 min at 4° C. to remove debris. Cell lysates were stored at −80° C. for future use. For mRNA analysis, total RNA was extracted using Trizol (Invitrogen) and stored at −80° C. for future use.
as §1
Immunoblots were prepared as described above. After incubation with anti-TS polyclonal antibody, membranes were blocked with the Odyssey blocking buffer and incubated with IRDye 800CW goat anti-rabbit antibody (LI-COR Biosciences; Lincoln, Nebr., USA) according to the manufacturer instructions. The fluorescent signal was detected and quantified using the Odyssey infrared imaging system (LI-COR).

[5] = system: human colon cancer RKO cell line; test: Clonogenic assay in RKO cells; assay type: cell-based; details: for IC50: 6 hr exposure, colonies counted after 8 days, mean ± S.D., at least 3 experiments
Description: RKO cells were plated in 6-well plates at a density of 600 cells/well. On the following day, cells were transfected with ssiRNA/LF2000 complexes for 6 hr after which time, the growth medium was replaced. Similarly, FdU was added to wells for 6 hr followed by medium replacement. After 8 days, cell colonies were fixed with Trypan blue solution (75% methanol/25% acetic acid/0.25% trypan blue), washed, and air-dried before counting colonies >50 cells.

[6] = system: TS mRNA; test: Real time qRT-PCR analysis of TS mRNA; assay type: cell-based, human; details: RKO cells, ssiRNA 1 nM, 48 hr
Description: as §2
Cells were plated at a density of 1.5×10^5 cells/well. […]
The first-strand cDNA was synthesized using 1.0 μg total RNA and the iScript™ Reverse Transcription Supermix for real-time quantitative polymerase chain reaction (qRT-PCR) (Bio-Rad; Hercules, Calif.). PCR was performed in triplicate using the SsoFast™ Probes Supermix (Bio-Rad) in a final reaction volume of 10 μL with gene-specific primer/probe sets, and a standard thermal cycling procedure (40 cycles) on a Bio-Rad CFX96™ Real-Time PCR System. mRNA levels of TS and 18S RNA were assessed using the TaqMan Gene Expression real-time PCR assays (Applied Biosystems; assay ID: Hs00426586_m1 and Hs03928990_g1, respectively). Results were expressed as the threshold cycle (Ct). […]

[7] = system: TS mRNA sequence in opposite orientation targeted by the sense (passenger) strand; test: Luciferase assay, vector with TS6 target site for the sense strand; assay type: cell-based, human; details: RKO cells, ssiRNA 0.1 nM, 24 hr
Description: (§3) FIG. 3 illustrates the effect of 3′-end modification on ssiRNA strand selection. RKO cells were transfected with luciferase vectors (including the TS6 target site for either the antisense (open bars) or sense strand (hatched bars)) in combination with ssiRNAs containing different 3′-end overhangs. After 24 hr, cells were harvested and luciferase activity was determined as described in the Materials and Methods section. Firefly/renilla luciferase activity from vector-alone transfection was normalized to 100%. All values represent the mean±S.D. from at least 4 separate experiments performed in duplicate;
(§4) FIGS. 4A-C illustrate the effect of 3′-end dU incorporation on ssiRNA strand selection. RKO cells were transfected with various TS6 ssiRNAs (1 nM) for 6 hr. After an additional 48 hr, cells were harvested for immunoblot (A) and qPCR (B) analysis. (C) Luciferase vectors (containing the siRNA target site for either the sense or antisense strand) were transfected into RKO cells in combination with different ssiRNAs. After 24 hr, cells were harvested and luciferase activity was determined as described in the Materials and Methods section. Luciferase activity from vector-alone transfection was normalized to 100%. All values represent the mean±S.D. from at least 4 separate experiments performed in duplicate;
(§5) A DNA oligonucleotide corresponding to the TS6 siRNA target sequence (TS mRNA nt 1058-1077: 5′-[…]-3′- SEQ ID NO: 23) was annealed to its complimentary antisense sequence and ligated into the pGL3-Promoter plasmid (Promega; Madison, WI) at restriction sites Hind III and Nco I. The luciferase mRNA expressed from this plasmid was targeted by the antisense strand of TS6 siRNA. A second plasmid was constructed with the TS mRNA sequence inserted in the opposite orientation so that it could be targeted by the sense or passenger strand of TS6 siRNA. […] After 24 hr, cells were washed with PBS, lysed in 1×PLG buffer, and firefly and renilla luciferase levels were determined by the Dual-Luciferase™ Reporter Assay system (Promega). […]

[8] = system: TS6 siRNA target sequence (TS mRNA nt 1058-1077) targeted by the antisense strand; test: Luciferase assay, vector with TS6 target site for the antisense strand; assay type: cell-based, human; details: RKO cells, ssiRNA 0.1 nM, 24 hr
Description: as §3, §4, §5

Substance	formation of the ITC immediately after transfection [1]	IC50 [2] [nM]	biomarkers of DNA damage, γH2AX and p-ATM [3]	effect on TS protein expression (in words) [4]	Free TS (%) [4] [%]	ITC-Bound TS (%) [4] [%]	IC50 [5] [nM]	effect on TS mRNA expression (in words) [6]	sense strand targeting, luciferase (in words) [7]	antisense strand targeting, luciferase (in words) [8]	less targeting by the antisense strand [8] [fold]	effect on cell proliferation / cytotoxicity (in words) ([2]; WST-1)	effect on clonogenic growth (in words) [5]
Mis-FdU/dA: control, non-targeted ssiRNA containing 5 FdU residues on the sense strand; SEQ ID NO: 21 and 22 (chain 1 GGAUACUGCCAAUCUCUAGGUUUUU; chain 2 CCUAGAGAUUGGCAGUAUCCAAAAA; chain 1: sugars from the 5' end r20 d5, [5FU] at 21, 22, 23, 24, 25, backbone not given here; chain 2: sugars from the 5' end r20 d5, backbone not given here)	formation of the ITC is observed	2.88	little to no effect	absolutely no inhibitory effect	89.5 ± 26.2	45.6 ± 21.1	1.75	absolutely no inhibitory effect					
TS6-UU: standard TS6 siRNA with two uridine overhangs, TS-targeted; SEQ ID NO: 1 (sense) and 2 (antisense) (sense GGAUAUUGUCAGUCUUUAGGUU; antisense CCUAAAGACUGACAAUAUCCUU; RNA, backbone not given here)									suppressed	suppressed			
TS6-dA/FdU: TS-targeted ssiRNA with FdU modification of the 3′-end of antisense strand; SEQ ID NO: 11 and 12 (chain 1 GGAUAUUGUCAGUCUUUAGGAAAAA; chain 2 CCUAAAGACUGACAAUAUCCUUUUU; chain 1: sugars from the 5' end r20 d5, backbone not given here; chain 2: sugars from the 5' end r20 d5, [5FU] at 21, 22, 23, 24, 25, backbone not given here)		1.27 ± 0.32		reduced the ability	48.0 ± 18.6	30.6 ± 15.6	0.4 ± 0.2		enhanced		2	significantly less effective	significantly less effective
